Measured values from ChEMBL document CHEMBL1151360, “Antibiotic principle of Eupatorium capillifolium” (1981).
Calls of active or inactive are those of the source. The rule behind the calls is not given here.

How the values were obtained:
[1] = test system: Bacillus subtilis; assay: Antibacterial activity against Bacillus subtilis ATCC 6633 at 750 ug/mL in synthetic medium by disc-plate assay; assay type: functional; details: read-out: IZ
[2] = test system: Bacillus subtilis; assay: Antibacterial activity against Bacillus subtilis ATCC 6633 at 500 ug/mL in synthetic medium by disc-plate assay; assay type: functional; details: read-out: IZ
[3] = test system: Bacillus subtilis; assay: Antibacterial activity against Bacillus subtilis ATCC 6633 at 250 ug/mL in synthetic medium by disc-plate assay; assay type: functional; details: read-out: IZ
[4] = test system: Bacillus subtilis; assay: Antibacterial activity against Bacillus subtilis ATCC 6633 at 60 ug/mL in synthetic medium by disc-plate assay; assay type: functional; details: read-out: IZ
[5] = test system: Bacillus subtilis; assay: Antibacterial activity against Bacillus subtilis ATCC 6633 at 30 ug/mL in synthetic medium by disc-plate assay; assay type: functional; details: read-out: IZ
[6] = test system: Bacillus subtilis; assay: Antibacterial activity against Bacillus subtilis ATCC 6633 at 15 ug/mL in synthetic medium by disc-plate assay; assay type: functional; details: read-out: IZ
[7] = test system: Bacillus subtilis; assay: Antibacterial activity against Bacillus subtilis ATCC 6633 at 750 ug/mL in complex natural medium by disc-plate assay; assay type: functional, organism-based
[8] = test system: Escherichia coli; assay: Antibacterial activity against Escherichia coli ATCC 10536 in complex natural medium by disc-plate assay; assay type: functional, organism-based
[9] = test system: Escherichia coli; assay: Antibacterial activity against Escherichia coli ATCC 10536 in synthetic medium by disc-plate assay; assay type: functional, organism-based
[10] = test system: Staphylococcus aureus; assay: Antibacterial activity against Staphylococcus aureus ATCC 6538P in complex natural medium by disc-plate assay; assay type: functional, organism-based
[11] = test system: Bacillus subtilis; assay: Antibacterial activity against Bacillus subtilis ATCC 6633 at 750 ug/mL in synthetic medium by disc-plate assay in presence of 5000 ug/mL glutamic acid; assay type: functional
[12] = test system: Bacillus subtilis; assay: Antibacterial activity against Bacillus subtilis ATCC 6633 at 750 ug/mL in synthetic medium by disc-plate assay in presence of 3000 ug/mL glutamic acid; assay type: functional
[13] = test system: Bacillus subtilis; assay: Antibacterial activity against Bacillus subtilis ATCC 6633 at 750 ug/mL in synthetic medium by disc-plate assay in presence of 1000 ug/mL glutamic acid; assay type: functional
[14] = test system: Bacillus subtilis; assay: Antibacterial activity against Bacillus subtilis ATCC 6633 at 750 ug/mL in synthetic medium by disc-plate assay in presence of 750 ug/mL glutamic acid; assay type: functional
[15] = test system: Bacillus subtilis; assay: Antibacterial activity against Bacillus subtilis ATCC 6633 at 750 ug/mL in synthetic medium by disc-plate assay in presence of 500 ug/mL glutamic acid; assay type: functional
[16] = test system: Bacillus subtilis; assay: Antibacterial activity against Bacillus subtilis ATCC 6633 at 750 ug/mL in synthetic medium by disc-plate assay in presence of 250 ug/mL glutamic acid; assay type: functional
[17] = test system: Bacillus subtilis; assay: Antibacterial activity against Bacillus subtilis ATCC 6633 at 750 ug/mL in synthetic medium by disc-plate assay in presence of 120 ug/mL glutamic acid; assay type: functional
[18] = test system: Bacillus subtilis; assay: Antibacterial activity against Bacillus subtilis ATCC 6633 at 750 ug/mL in synthetic medium by disc-plate assay in presence of 60 ug/mL glutamic acid; assay type: functional
[19] = test system: Bacillus subtilis; assay: Antibacterial activity against Bacillus subtilis ATCC 6633 at 750 ug/mL in synthetic medium by disc-plate assay in presence of 30 ug/mL glutamic acid; assay type: functional
[20] = test system: Bacillus subtilis; assay: Antibacterial activity against Bacillus subtilis ATCC 6633 at 750 ug/mL in synthetic medium by disc-plate assay in presence of 10 ug/mL glutamic acid; assay type: functional
[21] = test system: Bacillus subtilis; assay: Antibacterial activity against Bacillus subtilis ATCC 6633 at 120 ug/mL in synthetic medium by disc-plate assay; assay type: functional; details: read-out: IZ

What does the source list for `C=C(C(=O)O)[C@@H]1CC[C@@]2(C)CCCC(=C)[C@@H]2C1` [COSTIC ACID]?
zone of inhibition at 750 µg/mL [1]: 26 mm; zone of inhibition at 500 µg/mL [2]: 24 mm; zone of inhibition at 250 µg/mL [3]: 22 mm; zone of inhibition at 60 µg/mL [4]: 16.5 mm; zone of inhibition at 30 µg/mL [5]: 14.5 mm; zone of inhibition at 15 µg/mL [6]: 0 mm; Activity [7]: inactive; Activity [8]: inactive; Activity [9]: inactive; Activity [10]: inactive; inhibition (INH) [11]: 89%; inhibition zone (IZ) [11]: 18 mm; inhibition (INH) [12]: 89%; inhibition zone (IZ) [12]: 18 mm; inhibition (INH) [13]: 89%; inhibition zone (IZ) [13]: 18 mm; inhibition at 750 µg/mL [14]: 85%; zone of inhibition at 750 µg/mL ([14]; read-out: IZ): 19 mm; inhibition (INH) [15]: 80%; inhibition zone (IZ) [15]: 20 mm; inhibition (INH) [16]: 74%; inhibition zone (IZ) [16]: 21 mm; inhibition (INH) [17]: 74%; inhibition zone (IZ) [17]: 21 mm; inhibition (INH) [18]: 60%; inhibition zone (IZ) [18]: 22.5 mm; inhibition (INH) [19]: 40%; inhibition zone (IZ) [19]: 24 mm; inhibition (INH) [20]: 0%; inhibition zone (IZ) [20]: 26 mm; zone of inhibition at 120 µg/mL [21]: 19 mm
